# Results reported in publication PMC10609854 (Pharmaceuticals, 2023).
# pKi: −log10 of the molar value.
# What was measured:
# [1] = tested on: spontaneous locomotor activity; assay: spontaneous locomotor activity; format: in vivo; conditions: mice
# Method: The mean number of light-beam crossings in the vehicle-treated animals was 1.51 ± 0.13 x 103, measured during the 30 min-long period of observation. The test compound at a dose of 30 mg/kg […]
# effect [F(2,21) = 4.43, p < 0.05] (Figure S1).
# Figure S1. […] The test compound or vehicle (1% solution of Tween 80) were administered 30 min intraperitoneally (i.p.) before the beginning of the test. The results are presented as bar plots showing the mean ± SEM. Statistical analysis: one-way ANOVA followed by Dunnett’s post hoc test, * p < 0.05, n = 8 mice per group.
# time spent on the rotarod apparatus was 60 seconds for each control mouse. The same effect was observed in the E153- treated mice. […]
# impaired the motor coordination of mice at any tested speed [F(2,15) = 0.41, p=0.67] (Figure S2). We
# [2] = tested on: acute thermal pain (hot plate); assay: hot plate test; format: in vivo; conditions: mice, 30 mg/kg i.p., 30 min before test; saline control 17.93 ± 1.04 s
# Method: The hot plate test was performed according to classical method described in Eddy and Leimbach with modifications. At the beginning, animals were tested for their baseline pain sensitivity threshold. For further studies, only mice that fulfilled the criterium of pain response ≤30 s were used. […] The latency to pain response (licking the hind paw or jumping) was measured. The cut-off time was set to up to 60 s to avoid tissue damage, and mice not responding within 60 s were removed from the apparatus and assigned the score of 60 s.
# [3] = tested on: formalin-induced pain; assay: formalin test; format: in vivo, mice
# Method: The mice received an intraperitoneal (i.p.) injection of either the test compound or a control solution. After 30 min, a 20 μL injection of a 2.5% formalin solution was administered into the right hind paw. Right after the formalin injection, the animals were individually placed into glass containers and observed for the following 30 min. During specific time intervals (0–5 min, referred to as Phase I, and 15–30 min, referred to as Phase II, post-formalin injection), the time spent by the animals licking or biting the injected paw was recorded..
# [4] = tested on: capsaicin-induced pain; assay: capsaicin test; format: in vivo; conditions: mice, all doses (10, 15 and 30 mg/kg i.p.)
# Method: The mice received an intraperitoneal (i.p.) injection of either the test compound or a control solution. After 30 min, an intraplantar injection of 1.6 µg capsaicin in a 20 μL solution of 0.9% NaCl was administered to the right hind paw. Right after the capsaicin injection, the animals were individually placed into glass containers and observed for the subsequent 5 min. During this observation period, the time that each animal spent licking or biting the injected paw was recorded.
# [5] = target: T1, human kappa opioid receptor (Homo sapiens, UniProt P41145); assay: radioligand binding, human opioid kappa receptor ([3H]U69593, RBL cells)
# T1 construct: host or cells: RBL cells
# [6] = target: human histamine H3 receptor; set-up: method as in PMID 28797771; conditions: [3H]Nα-methylhistamine in HEK293 cells; cited from earlier work
# [7] = in vivo; conditions: mouse
# Method: The compound was administered at a dose of 5 mg/kg i.v. and at two doses (5 and 15 mg/kg) i.p. Before the dose (time 0) and up to 8 h at different time points following compound administration, three to five mice per time point were exsanguinated while under light ketamine/xylazine anesthesia. Blood and brains were harvested to the last measured point, whereas liver, kidneys, and lungs were collected at 0.25, 0.5, and 1 h. Serum and tissues were stored at −80 °C until assayed.
# Tissues (liver, kidney, brain, and lung) were homogenized with water in a 1:5 ratio (w/v). Prior to the extraction, 100 μL of the plasma samples or 500 μL of tissue homogenates containing calibrators or authentic samples were spiked with 10 μL of IS working solution in a snap-cap microcentrifuge tubes and vortexed (Reax top, Heidolph, Schwabach, Germany) for 15 s. The serum and tissue samples were then alkalized with, respectively, 20 μL or 50 μL of 4 M sodium hydroxide solution, mixed briefly on the vortex mixer, and extracted with 1 mL of ethyl acetate/hexane (30:70, v/v) mixture by mixing for 20 min on a shaker (VXR Vibrax, IKA, Staufen, Germany). Then samples were centrifuged (EBA 12 R, Hettich, Germany) at 8000 g for 15 min and the organic layer of each sample was transferred to a new snap-cap microcentrifuge tube containing 200 μL of a methanol/0.1 M sulfuric acid mixture (1:9, v/v). Subsequently the samples were vortexed (20 min) and centrifuged again (8000 g, 15 min). Finally, the organic layer was discarded and 10–50 μL of the acidic layer was transferred to the autosampler vials (4 °C).
# The HPLC system (LaChrom Elite, Merck Hitachi) consisted of the following components: an L-2130 pump, an L-2200 autosampler with a 100 μL sample loop, an L-2350 oven, and an L-2485 fluorescence detector. Excitation and emission wavelengths were set to 260 nm and 330 nm, respectively. Analysis was performed at a temperature of 25 °C on a 250 mm × 4 mm LiChrospher 100 RP-18 column from Merck Millipore (Germany), filled with 5 μm particles, protected with LiChroCART precolumn (10 μm particle size). The mobile phase containing acetonitrile and 20 mM potassium dihydrogen phosphate buffer (pH 4.5) in a 7:3 (v/v) ratio was filtered through the 0.45 µm membrane filter (Supelco Inc., Mainz, Germany) before use and pumped at a flow rate of 1.5 mL/min. […] The method was validated for serum, brain, liver kidney, and lungs.
# Both one- and two-compartment pharmacokinetic models were tested. Bioavailability was estimated as a model parameter (F). […] The maximum concentration (Cmax) and the time to reach peak concentration (tmax) were obtained directly from the concentration–time data. The terminal elimination rate constant (λz) was assessed using linear regression. Terminal half-life (t0.5λz) was calculated as ln2/λz. The area under the concentration–time curve from 0 to last measured point (AUC0–last) was calculated using the linear trapezoidal rule. Non-compartmental and model-dependent analyses were performed using Phoenix WinNonlin version 6.3 (Pharsight Corp., Mountain View, CA, USA). The final pharmacokinetic model was selected on the basis of visual inspection of the fitting, examination of residuals, parameter precision, Akaike Information Criteria, and Schwarz Criteria.
# T1 sequence (P41145 whole entry): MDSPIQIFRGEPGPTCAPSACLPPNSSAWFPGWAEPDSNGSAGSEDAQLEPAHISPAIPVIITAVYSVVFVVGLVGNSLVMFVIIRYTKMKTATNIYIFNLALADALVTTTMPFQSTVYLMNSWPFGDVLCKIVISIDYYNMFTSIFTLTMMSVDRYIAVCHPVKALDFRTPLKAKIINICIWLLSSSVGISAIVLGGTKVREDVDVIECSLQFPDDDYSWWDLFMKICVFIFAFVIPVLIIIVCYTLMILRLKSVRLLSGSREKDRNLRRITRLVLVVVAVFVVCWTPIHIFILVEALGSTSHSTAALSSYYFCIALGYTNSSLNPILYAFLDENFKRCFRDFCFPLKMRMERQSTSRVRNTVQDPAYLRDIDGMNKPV
structure (smiles),measurement,setting,value
"O=C(O)C(=O)O.c1ccc(-c2ccc(OCCCCCN3CCCCCC3)cc2)cc1 [Compound E153, 1-(5-(4-Phenylphenoxy)pentyl)azepane hydrogen oxalate]","spontaneous locomotor activity (light-beam crossings, 30 min)",[1]; 15 mg/kg i.p.,no effect
same,"spontaneous locomotor activity (light-beam crossings, 30 min)",[1]; 30 mg/kg i.p.,significantly altered
same,"latency time of the pain reaction, hot plate test",[2],37.60 ± 6.13 s
same,"duration of the nociceptive response, acute phase of the formalin test","[3]; mice, 10, 15 and 30 mg/kg i.p., 0–5 min after formalin",did not significantly affect
same,"paw licking or biting behavior, late phase of the formalin test","[3]; mice, all doses tested (10, 15 and 30 mg/kg i.p.), 15–30 min after formalin",significantly attenuated
same,"paw licking or biting behavior, capsaicin test",[4],significantly decreased
same,inhibition at 1 µM,[5],52%
same,pKi,[6],7.47
same,Vc (volume of the central compartment),[7],6.39 L/kg
same,half-life,[7],41.6 min
same,k12 (first-order distribution rate constant),[7],0.33 h⁻¹
same,k21 (first-order distribution rate constant),[7],0.19 h⁻¹
same,k el,[7],0.000278 s⁻¹
same,time of high (peak) concentrations in brain tissue,[7],0.5 to 1 h
same,"k01 (first-order absorption rate constant, ka)",[7]; ip,2.32 h⁻¹
same,Kp,"[7]; ip, 5 mg/kg",28.5
same,brain t0.5λz,"[7]; ip, 5 mg/kg",1.03 h
same,Kp,"[7]; ip, 15 mg/kg",14.7
same,brain Cmax,"[7]; ip, 15 mg/kg","11,682.69 ng/g"
same,brain t0.5λz,"[7]; ip, 15 mg/kg",1.46 h
same,Kp,"[7]; iv, 5 mg/kg",15.7
same,Tmax,"[7]; iv, 5 mg/kg",15 min
same,brain t0.5λz,"[7]; iv, 5 mg/kg",0.90 h
same,highest concentration in liver,"[7]; iv, 5 mg/kg",5.32 µg/g
same,highest concentration in lung tissue,"[7]; iv, 5 mg/kg",43.13 µg/g
